Source: patent US20240245793A1, “PSD-95 INHIBITORS AND USES THEREOF” (priority 2021, published 2024)
Read-outs that look alike come from different tables or passages of the source.

Tested on: HeLa cells stably expressing HaloGFP
Assay: Chloroalkane penetration assay (CAPA), membrane permeability and cellular uptake
Assay type: cell-based
Source text: Since PSD-95 is located intracellularly, it is essential for any drug targeting PSD-95 to efficiently cross the cell membrane. To assess the cellular permeability and delivery to the cytosol of the compounds as defined herein, the cellular chloroalkane penetration assay (CAPA) may be used (Peraro et al. 2018). This assay takes advantage of a modified haloalkane dehalogenase designed to covalently bind chloroalkane (CA) molecules. A HeLa cell line expressing a fusion protein comprising a HaloTag, a green fluorescent protein (GFP) and a mitochondria-targeting peptide is used to report cytosolic delivery. The general format of the CAPA is a pulse-chase assay (Deprey & Kritzer, 2020). Cells expressing the HaloTag enzyme are incubated with CA-tagged peptides. When these CA-peptides penetrate the cell membrane and reach the cytosol, they will bind to and react with the HaloTag (pulse step). Following a washing step, the cells are incubated with a CA-tagged dye that quantitatively penetrates the cell membrane and reacts with remaining unreacted HaloTag sites (chase step). Flow cytometry is used to measure the fluorescence intensity of the cells and the measured fluorescence is inversely proportional to the amount of CA-peptides that reach the penetrated the cells and can thus be used to assess cytosolic delivery. The obtained data is commonly expressed as CP50 values, the concentration at which 50% cell penetration is observed. The CP50 value of a compound may be measured as described in example 4.
The membrane permeability of compounds 10 to 75 was determined in HeLa cells stably expressing HaloGFP exclusively located in the cytosol. Cells were seeded at a density of 40.000 cells/well one day prior to the experiment. After the growth media was aspirated and replaced by 100 μL of Opti-MEM, 25 μL of a prepared serial dilution of the ligand in Opti-MEM was added to the cells (constant DMSO concentration), and the plate was incubated for 4 h at 37° C. and 5% CO2. The contents of the wells were aspirated, and cells were washed with fresh Opti-MEM for 15 min. After aspiration of the wash, the cells were incubated with TAMRA-CA (5 μM) for 15 min. After aspiration of the chase solution, cells were washed with Opti-MEM for 30 min. Following removal of the wash, cells were trypsinized, resuspended in PBS (2% FBS), and analyzed using a benchtop flow cytometer. Using no ligand and no TAMRA-CA control well, the obtained fluorescence intensity data was normalized and plotted as dose-response curves. Reported CP50 values represent half-maximum red fluorescence which behaves inverse to cell penetration of the ligand.

[1] = CA-tagged ligands, 4 h at 37° C., L-TAT and L-Arg9, mean ± SEM (Table 10, FIG. 7)

Row | CP50 | Compound | CP50 (CA-tagged NPEG4-(IETDV)2 with various CPP-tags, 4 h at 37° C., mean ± SEM (Table 11, FIG. 8)) | CP50 [1]
1 | – | CC[C@H](C)[C@H](NC(=O)CCOCCOCCN(CCOCCOCCC(=O)N[C@H](C(=O)N[C@@H](CCC(=O)O)C(=O)N[C@H](C(=O)N[C@@H](CC(=O)O)C(=O)N[C@H](C(=O)O)C(C)C)[C@@H](C)O)[C@@H](C)CC)C(=O)[C@H](CCCNC(=N)N)NC(=O)[C@H](CCCNC(=N)N)NC(=O)[C@H](CCCNC(=N)N)NC(=O)[C@H](CCC(N)=O)NC(=O)[C@H](CCCNC(=N)N)NC(=O)[C@H](CCCNC(=N)N)NC(=O)[C@H](CCCCN)NC(=O)[C@H](CCCCN)NC(=O)[C@H](CCCNC(=N)N)NC(=O)CNC(=O)[C@H](Cc1ccc(O)cc1)NC(=O)CCC(=O)NCCOCCOCCCCCCCl)C(=O)N[C@@H](CCC(=O)O)C(=O)N[C@H](C(=O)N[C@@H](CC(=O)O)C(=O)N[C@H](C(=O)O)C(C)C)[C@@H](C)O [Compound 10] | 55.1 ± 3.0 µM | 55.1 ± 3.0 µM
2 | – | CC(C)C[C@H](NC(=O)[C@@H](NC(=O)[C@H](CCC(=O)O)NC(=O)[C@H](CCCCN)NC(=O)CCOCCOCCN(CCOCCOCCC(=O)N[C@@H](CCCCN)C(=O)N[C@@H](CCC(=O)O)C(=O)N[C@H](C(=O)N[C@@H](CC(C)C)C(=O)N[C@H](C(=O)O)C(C)C)[C@@H](C)O)C(=O)[C@H](CCCNC(=N)N)NC(=O)[C@H](CCCNC(=N)N)NC(=O)[C@H](CCCNC(=N)N)NC(=O)[C@H](CCC(N)=O)NC(=O)[C@H](CCCNC(=N)N)NC(=O)[C@H](CCCNC(=N)N)NC(=O)[C@H](CCCCN)NC(=O)[C@H](CCCCN)NC(=O)[C@H](CCCNC(=N)N)NC(=O)CNC(=O)[C@H](Cc1ccc(O)cc1)NC(=O)CCC(=O)NCCOCCOCCCCCCCl)[C@@H](C)O)C(=O)N[C@H](C(=O)O)C(C)C [Compound 12] | – | 72.5 ± 4.4 µM
3 | – | CC(C)[C@H](NC(=O)[C@@H](NC(=O)[C@@H](NC(=O)[C@H](CCC(=O)O)NC(=O)[C@H](CCCCN)NC(=O)CCOCCOCCN(CCOCCOCCC(=O)N[C@@H](CCCCN)C(=O)N[C@@H](CCC(=O)O)C(=O)N[C@H](C(=O)N[C@H](C(=O)N[C@H](C(=O)O)C(C)C)[C@@H](C)O)[C@@H](C)O)C(=O)[C@H](CCCNC(=N)N)NC(=O)[C@H](CCCNC(=N)N)NC(=O)[C@H](CCCNC(=N)N)NC(=O)[C@H](CCC(N)=O)NC(=O)[C@H](CCCNC(=N)N)NC(=O)[C@H](CCCNC(=N)N)NC(=O)[C@H](CCCCN)NC(=O)[C@H](CCCCN)NC(=O)[C@H](CCCNC(=N)N)NC(=O)CNC(=O)[C@H](Cc1ccc(O)cc1)NC(=O)CCC(=O)NCCOCCOCCCCCCCl)[C@@H](C)O)[C@@H](C)O)C(=O)O [Compound 14] | – | 78.4 ± 3.9 µM
4 | – | CC(C)[C@H](NC(=O)[C@@H](NC(=O)[C@@H](NC(=O)[C@H](CCC(=O)O)NC(=O)[C@H](CCCCN)NC(=O)CCOCCOCCN(CCOCCOCCC(=O)N[C@@H](CCCCN)C(=O)N[C@@H](CCC(=O)O)C(=O)N[C@H](C(=O)N[C@H](C(=O)N[C@H](C(=O)O)C(C)C)C(C)C)[C@@H](C)O)C(=O)[C@H](CCCNC(=N)N)NC(=O)[C@H](CCCNC(=N)N)NC(=O)[C@H](CCCNC(=N)N)NC(=O)[C@H](CCC(N)=O)NC(=O)[C@H](CCCNC(=N)N)NC(=O)[C@H](CCCNC(=N)N)NC(=O)[C@H](CCCCN)NC(=O)[C@H](CCCCN)NC(=O)[C@H](CCCNC(=N)N)NC(=O)CNC(=O)[C@H](Cc1ccc(O)cc1)NC(=O)CCC(=O)NCCOCCOCCCCCCCl)[C@@H](C)O)C(C)C)C(=O)O [Compound 16] | – | 81.8 ± 1.2 µM
5 | – | CC(C)[C@H](NC(=O)[C@H](CCCNC(=N)N)NC(=O)[C@@H](NC(=O)[C@H](CCC(=O)O)NC(=O)[C@H](CCCCN)NC(=O)CCOCCOCCN(CCOCCOCCC(=O)N[C@@H](CCCCN)C(=O)N[C@@H](CCC(=O)O)C(=O)N[C@H](C(=O)N[C@@H](CCCNC(=N)N)C(=O)N[C@H](C(=O)O)C(C)C)[C@@H](C)O)C(=O)[C@H](CCCNC(=N)N)NC(=O)[C@H](CCCNC(=N)N)NC(=O)[C@H](CCCNC(=N)N)NC(=O)[C@H](CCC(N)=O)NC(=O)[C@H](CCCNC(=N)N)NC(=O)[C@H](CCCNC(=N)N)NC(=O)[C@H](CCCCN)NC(=O)[C@H](CCCCN)NC(=O)[C@H](CCCNC(=N)N)NC(=O)CNC(=O)[C@H](Cc1ccc(O)cc1)NC(=O)CCC(=O)NCCOCCOCCCCCCCl)[C@@H](C)O)C(=O)O [Compound 18] | – | 47.7 ± 1.0 µM
6 | – | CC[C@H](C)[C@H](NC(=O)CCOCCOCCN(CCOCCOCCC(=O)N[C@H](C(=O)N[C@@H](CO)C(=O)N[C@H](C(=O)N[C@@H](CC(=O)O)C(=O)N[C@H](C(=O)O)C(C)C)[C@@H](C)O)[C@@H](C)CC)C(=O)[C@H](CCCNC(=N)N)NC(=O)[C@H](CCCNC(=N)N)NC(=O)[C@H](CCCNC(=N)N)NC(=O)[C@H](CCC(N)=O)NC(=O)[C@H](CCCNC(=N)N)NC(=O)[C@H](CCCNC(=N)N)NC(=O)[C@H](CCCCN)NC(=O)[C@H](CCCCN)NC(=O)[C@H](CCCNC(=N)N)NC(=O)CNC(=O)[C@H](Cc1ccc(O)cc1)NC(=O)CCC(=O)NCCOCCOCCCCCCCl)C(=O)N[C@@H](CO)C(=O)N[C@H](C(=O)N[C@@H](CC(=O)O)C(=O)N[C@H](C(=O)O)C(C)C)[C@@H](C)O [Compound 20] | – | 41.9 ± 1.6 µM
7 | – | CC(C)[C@H](NC(=O)[C@@H](NC(=O)[C@@H](NC(=O)[C@H](CCC(=O)O)NC(=O)[C@@H](NC(=O)CCOCCOCCN(CCOCCOCCC(=O)N[C@H](C(=O)N[C@@H](CCC(=O)O)C(=O)N[C@H](C(=O)N[C@H](C(=O)N[C@H](C(=O)O)C(C)C)C(C)C)[C@@H](C)O)C(C)C)C(=O)[C@H](CCCNC(=N)N)NC(=O)[C@H](CCCNC(=N)N)NC(=O)[C@H](CCCNC(=N)N)NC(=O)[C@H](CCC(N)=O)NC(=O)[C@H](CCCNC(=N)N)NC(=O)[C@H](CCCNC(=N)N)NC(=O)[C@H](CCCCN)NC(=O)[C@H](CCCCN)NC(=O)[C@H](CCCNC(=N)N)NC(=O)CNC(=O)[C@H](Cc1ccc(O)cc1)NC(=O)CCC(=O)NCCOCCOCCCCCCCl)C(C)C)[C@@H](C)O)C(C)C)C(=O)O [Compound 22] | – | 86.1 ± 4.5 µM
8 | 0.78 ± 0.05 µM | CC(C)C[C@H](NC(=O)[C@@H](NC(=O)[C@H](CCC(=O)O)NC(=O)[C@H](CCCCN)NC(=O)CCOCCOCCN(CCOCCOCCC(=O)N[C@@H](CCCCN)C(=O)N[C@@H](CCC(=O)O)C(=O)N[C@H](C(=O)N[C@@H](CC(C)C)C(=O)N[C@H](C(=O)O)C(C)C)[C@@H](C)O)C(=O)[C@H](CCCNC(=N)N)NC(=O)[C@H](CCCNC(=N)N)NC(=O)[C@H](CCCNC(=N)N)NC(=O)[C@H](CCCNC(=N)N)NC(=O)[C@H](CCCNC(=N)N)NC(=O)[C@H](CCCNC(=N)N)NC(=O)[C@H](CCCNC(=N)N)NC(=O)[C@H](CCCNC(=N)N)NC(=O)[C@H](CCCNC(=N)N)NC(=O)CCC(=O)NCCOCCOCCCCCCCl)[C@@H](C)O)C(=O)N[C@H](C(=O)O)C(C)C [Compound 24] | – | –
9 | 0.74 ± 0.09 µM | CC(C)[C@H](NC(=O)[C@@H](NC(=O)[C@@H](NC(=O)[C@H](CCC(=O)O)NC(=O)[C@H](CCCCN)NC(=O)CCOCCOCCN(CCOCCOCCC(=O)N[C@@H](CCCCN)C(=O)N[C@@H](CCC(=O)O)C(=O)N[C@H](C(=O)N[C@H](C(=O)N[C@H](C(=O)O)C(C)C)[C@@H](C)O)[C@@H](C)O)C(=O)[C@H](CCCNC(=N)N)NC(=O)[C@H](CCCNC(=N)N)NC(=O)[C@H](CCCNC(=N)N)NC(=O)[C@H](CCCNC(=N)N)NC(=O)[C@H](CCCNC(=N)N)NC(=O)[C@H](CCCNC(=N)N)NC(=O)[C@H](CCCNC(=N)N)NC(=O)[C@H](CCCNC(=N)N)NC(=O)[C@H](CCCNC(=N)N)NC(=O)CCC(=O)NCCOCCOCCCCCCCl)[C@@H](C)O)[C@@H](C)O)C(=O)O [Compound 26] | – | –
10 | 0.79 ± 0.06 µM | CC(C)[C@H](NC(=O)[C@@H](NC(=O)[C@@H](NC(=O)[C@H](CCC(=O)O)NC(=O)[C@H](CCCCN)NC(=O)CCOCCOCCN(CCOCCOCCC(=O)N[C@@H](CCCCN)C(=O)N[C@@H](CCC(=O)O)C(=O)N[C@H](C(=O)N[C@H](C(=O)N[C@H](C(=O)O)C(C)C)C(C)C)[C@@H](C)O)C(=O)[C@H](CCCNC(=N)N)NC(=O)[C@H](CCCNC(=N)N)NC(=O)[C@H](CCCNC(=N)N)NC(=O)[C@H](CCCNC(=N)N)NC(=O)[C@H](CCCNC(=N)N)NC(=O)[C@H](CCCNC(=N)N)NC(=O)[C@H](CCCNC(=N)N)NC(=O)[C@H](CCCNC(=N)N)NC(=O)[C@H](CCCNC(=N)N)NC(=O)CCC(=O)NCCOCCOCCCCCCCl)[C@@H](C)O)C(C)C)C(=O)O [Compound 28] | – | –
